These are literature values, as cited in patent US4804651A, “Methods and compositions for the treatment of psoriasis” (Board of Regents, The University of Texas System, priority 1987, dated 1989).

For this series the following is noted: cited from earlier work.

As for `Cc1cn([C@H]2C[C@H](N=[N+]=[N-])[C@@H](CO[C@@H]3O[C@H](C(=O)O)[C@@H](O)[C@H](O)[C@H]3O)O2)c(=O)[nH]c1=O` [GAZT, 5'-glucuronide of AZT], the “activity of the metabolite” value (in vivo) is “inactive”. In addition, the metabolite identification result (plasma and urine) is “major plasma and urinary metabolite”. Further, where the note is “plasma”, the “clearance from plasma (metabolite)” value is reported as “rapidly cleared from plasma” and the “plasma level relative to the corresponding AZT level” value was 2-3 ×.
